Source: patent publication US20050282889A1, “Intracorporeal medicaments for photodynamic treatment of disease” (priority 1996, published 2005)

Experiments:
[1] = Absorbance properties of halogenated xanthenes (λmax, α); format: physicochemical
Source text: Certain general properties of this class of agents are discussed in further detail in U.S. Ser. No. 09/130,041, filed on Aug. 6, 1998, U.S. Ser. No. 09/184,388, filed on Nov. 2, 1998, and U.S. Ser. No. 09/216,787, filed on Dec. 21, 1998, which are herein incorporated by reference in their entirety.

[2] = Photochemical quantum yields (triplet, singlet oxygen); format: physicochemical
renal adenocarcinoma [3] = assay: Per oesophageal Rose Bengal plus 532 nm light, murine renal adenocarcinoma tumor model; format: in vivo, Balb C Nude (nu/nu) mice
BNL/SV40 Liver Cell = assay: Intratumoral injection plus light, murine tumor model; format: in vivo; conditions: i.t. approx. 30 μL 10% solution, tumor 8 × 10 × 5 mm, 50 J/cm^2 532 nm
[4] = test system: Human Breast Adenocarcinoma (MCF-7); assay: as above; format: in vivo; conditions: i.t. approx. 30 μL 10% solution, tumor 3 × 4 × 4 mm, 100 J/cm^2 532 nm
Renal Adenocarcinoma [5] = assay: as above; format: in vivo; conditions: for No. Tumors Cured: 4 treated
[6] = test system: tumor cell suspensions (e.g. melanoma, breast tumor, liver tumor, renal carcinoma, gall bladder tumor or prostate tumor); assay: Photodynamic treatment of subcutaneous primary tumors in nude mice; format: in vivo
[7] = Retention of agent after intratumoral or peritumoral injection; conditions: mouse, in vivo
Procedure: Initially, tumor cell suspensions (e.g. melanoma, breast tumor, liver tumor, renal carcinoma, gall bladder tumor or prostate tumor) were injected subcutaneously into the flanks of nude mice resulting in formation of primary tumors, within a few weeks, at the injection site having a volume of approximately 0.1 cm^3 to 0.5 cm^3.

cutaneous lipocytes = assay: Systemic administration to obese mice: accumulation in and photodynamic destruction of cutaneous lipocytes; format: in vivo, obese laboratory mice
Source text: For example, Rose Bengal's relatively large partition coefficient is indicative of a preference for accumulation in lipophilic tissue, such as cutaneous lipocytes.

[8] = test system: procaryotic or eucaryotic cell cultures; assay: Dark and light cytotoxicity in cell cultures; format: cell-based; conditions: concentrations equivalent to or greater than 100 mg/kg
Source text: Further, the inventors of the present invention have shown that these agents are readily cleared from healthy tissues in a matter of several hours and are known to be rapidly excreted in bile, urine and feces, without doing damage to those healthy tissues while it was there.

cutaneous tumors = assay: Per oesophageal Rose Bengal plus green light, mice with cutaneous tumors; format: in vivo; conditions: approximately 10% W/V solution p.o.; green light 500-600 nm
esophageal tissue = assay: Per oesophageal Rose Bengal plus green light on esophageal tissue; format: in vivo, canines; conditions: approximately 1.0% W/V solution p.o.; green light 500-600 nm
prostate tumor = assay: Intratumoral Rose Bengal plus green light; format: in vivo; conditions: approximately 10% W/V solution i.t.; green light 500-600 nm
lung tumor = assay: Intratumoral Rose Bengal plus green light; format: in vivo; conditions: approximately 10% W/V solution i.t.; green light 500-600 nm
metastatic breast tumor = assay: Intratumoral Rose Bengal plus green light; format: in vivo; conditions: approximately 10% W/V solution i.t.; green light 500-600 nm
thyroid tumor = assay: Intratumoral Rose Bengal plus green light; format: in vivo; conditions: approximately 10% W/V solution i.t.; green light 500-600 nm
[9] = Serum level after per oesophageal administration; format: in vivo; conditions: approximately 10% W/V solution p.o.
[10] = test system: antibiotic resistant Staphylococcus aureus; assay: Photodynamic eradication of microbes; format: cell-based; conditions: aqueous solution approximately 1 to 10 micromolar; green light 500-600 nm
Escherichia coli = assay: Photodynamic eradication of microbes; format: cell-based; conditions: aqueous solution approximately 1 to 10 micromolar; green light 500-600 nm
various yeasts = assay: Photodynamic eradication of microbes; format: cell-based; conditions: aqueous solution approximately 1 to 10 micromolar; green light 500-600 nm
[11] = No Light control, 0 J/cm^2, i.t. 10% solution, tumor 2 × 3 × 3 mm
[12] = i.t. approx. 30 μL 10% solution, tumor 2 × 3 × 3 mm, 100 J/cm^2 532 nm
[13] = i.t. approx. 30 μL 10% solution, tumor 5 × 8 × 8 mm, 100 J/cm^2 532 nm

O=C1OC2(c3cc(I)c(O)c(I)c3Oc3c2cc(I)c(O)c3I)c2c(Cl)c(Cl)c(Cl)c(Cl)c21 [Rose Bengal, 4,5,6,7-tetrachloro-2′,4′,5′,7′-Tetraiodofluorescein]
α [1]: 100000 L/cm/mol
λmax (nm) EtOH ([1]; EtOH): 557 nm
λmax (nm) H2O ([1]; H2O): 547 nm
λmax (nm) MeOH ([1]; MeOH): 556 nm
φ (singlet oxygen) EtOH ([2]; EtOH): 0.75
φ (singlet oxygen) H2O ([2]; H2O): 0.86
φ (singlet oxygen) MeOH ([2]; MeOH): 0.76
φ (triplet) MeOH ([2]; MeOH): 0.76
Cure Rate (renal adenocarcinoma [3]; 10% solution p.o. approx. 50 mg/kg, 100 J/cm^2 532 nm, latency 3 hr): 60% (3/5)
No. Tumors With Positive Response (renal adenocarcinoma [3]; 10% solution p.o. approx. 50 mg/kg, 100 J/cm^2 532 nm, latency 3 hr, 5 tumors treated, eschar at tumor site 24 h after illumination): 3
Cure Rate (renal adenocarcinoma [3]; 10% solution p.o. approx. 50 mg/kg, 100 J/cm^2 532 nm, latency 20 hr): 78% (7/9)
No. Tumors With Positive Response (renal adenocarcinoma [3]; 10% solution p.o. approx. 50 mg/kg, 100 J/cm^2 532 nm, latency 20 hr, 9 tumors treated): 7
Cure Rate (renal adenocarcinoma [3]; No Light control, 0 J/cm^2, p.o. approx. 50 mg/kg): 0% (0/2)
No. Tumors With Positive Response (renal adenocarcinoma [3]; No Light control, 0 J/cm^2, p.o. approx. 50 mg/kg, 2 tumors treated): 0
Damage in peritumoral tissues (renal adenocarcinoma [3]; p.o. approx. 50 mg/kg, tumor and peritumoral area illuminated, 100 J/cm^2 532 nm): eschar formation selectively at the tumor site. No damage was noted in peritumoral tissues. “No Light” and
Cure Rate (BNL/SV40 Liver Cell): 25%
No. Tumors Cured (BNL/SV40 Liver Cell; 8 treated, reoccurrence at 2-3 weeks): 2
Cure Rate [4]: 100%
No. Tumors Cured ([4]; 2 treated): 2
Cure Rate (Renal Adenocarcinoma [5]; [11]): 0%
No. Tumors Cured (Renal Adenocarcinoma [5]; [11]): 0
Cure Rate (Renal Adenocarcinoma [5]; [12]): 100%
No. Tumors Cured (Renal Adenocarcinoma [5]; [12]): 4
Cure Rate (Renal Adenocarcinoma [5]; [13]): 50%
No. Tumors Cured (Renal Adenocarcinoma [5]; [13]): 2
Tumor response after p.o. administration and illumination ([6]; 10-30 μL of 10% solution (1-3 mg) p.o., 532 nm, 50-200 J/cm^2, 3-48 hours post administration): selective destruction of tumor tissue with no substantive effect in healthy surrounding tissue
Tumor response after intratumoral injection and illumination ([6]; i.t., similar formulation, light at 532 nm): selective tumor destruction
Injected dose remaining in the tumor [7]: more than 75%
Tissue localization after i.t. administration [7]: persistent accumulation and retention of Rose Bengal uniformly throughout the tumor volume
Tissue accumulation after systemic administration (cutaneous lipocytes; aqueous solution i.p. or p.o., cutaneous fat deposits of obese mice): highly selective accumulation
Photodynamic effect on lipocytes (cutaneous lipocytes; illumination of skin at approximately 532 nm after systemic administration): selective photodynamic destruction of such lipocytes with no effect in overlying skin or underlying muscle tissue
Light cytotoxicity: effect on cell cultures ([8]; light between about 500 nm and 600 nm): immediate and complete kill
Dark cytotoxicity: effect on viability of cultures ([8]; no illumination): no measurable effect on the viability
Tumor response (cutaneous tumors): substantial or complete photodynamic eradication
Tissue response in illuminated region (esophageal tissue): controlled, localized photodynamic destruction of tissues in the treated region
Tumor response (prostate tumor): controlled, localized photodynamic eradication
Tumor response (lung tumor): controlled, localized photodynamic eradication
Tumor response (metastatic breast tumor): controlled, localized photodynamic eradication
Tumor response (thyroid tumor): controlled, localized photodynamic eradication
Serum levels of Rose Bengal [9]: transient elevation of serum levels
Eradication of microbes [10]: substantial or complete eradication
Eradication of microbes (Escherichia coli): substantial or complete eradication
Eradication of microbes (various yeasts): substantial or complete eradication
